In patent US20240059673A1, “SUBSTITUTED INDOLE COMPOUNDS” (Gilead Sciences, Inc., priority 2020, published 2024):

How the values were obtained:
[1] = target: T1, TLR8 (Homo sapiens, UniProt Q9NR97); test: TLR8 human PBMC cell-based assay; details: human PBMCs; TLR8 agonist Compound A 800 nM; 6 hours; cytokines (TNFa and IL12p40) in supernatant; Table 2; read-out: TLR-8 EC50
T1 construct: lymphocytes, monocytes and dendritic cells that express TLR7, TLR8 and TLR9; endogenous in cells; host or cells: cryopreserved human PBMCs from healthy donors
T1 sequence (Q9NR97 27-1041): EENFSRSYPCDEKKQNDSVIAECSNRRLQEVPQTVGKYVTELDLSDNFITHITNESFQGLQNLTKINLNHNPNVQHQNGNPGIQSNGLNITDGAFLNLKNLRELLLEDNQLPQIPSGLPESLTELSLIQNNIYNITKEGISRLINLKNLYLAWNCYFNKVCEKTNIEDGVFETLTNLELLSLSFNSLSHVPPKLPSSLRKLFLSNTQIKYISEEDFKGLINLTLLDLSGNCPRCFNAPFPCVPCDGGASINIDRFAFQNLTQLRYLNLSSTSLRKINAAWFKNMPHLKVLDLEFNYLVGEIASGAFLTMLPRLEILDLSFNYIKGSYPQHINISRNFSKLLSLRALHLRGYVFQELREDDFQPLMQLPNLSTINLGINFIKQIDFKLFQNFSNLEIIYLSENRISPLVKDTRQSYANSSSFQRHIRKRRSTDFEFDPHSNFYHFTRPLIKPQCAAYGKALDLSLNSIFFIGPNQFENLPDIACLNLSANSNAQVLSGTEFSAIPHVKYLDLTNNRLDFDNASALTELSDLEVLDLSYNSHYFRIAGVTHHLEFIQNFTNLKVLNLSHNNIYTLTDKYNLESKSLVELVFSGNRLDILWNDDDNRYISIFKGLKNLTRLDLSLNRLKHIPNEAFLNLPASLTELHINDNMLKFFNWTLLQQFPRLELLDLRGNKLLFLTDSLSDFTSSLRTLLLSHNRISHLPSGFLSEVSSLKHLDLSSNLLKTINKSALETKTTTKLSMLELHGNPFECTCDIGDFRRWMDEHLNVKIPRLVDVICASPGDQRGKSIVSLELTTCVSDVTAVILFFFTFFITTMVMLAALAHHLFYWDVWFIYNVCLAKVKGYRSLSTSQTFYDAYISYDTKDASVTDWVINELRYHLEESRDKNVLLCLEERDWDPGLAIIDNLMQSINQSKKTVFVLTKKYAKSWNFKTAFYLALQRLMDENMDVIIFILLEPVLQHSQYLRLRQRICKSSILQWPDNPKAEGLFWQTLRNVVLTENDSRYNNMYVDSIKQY
Method: TLR8 Human Peripheral Blood Mononuclear Cell (PBMC) Cell-Based Assay
Cryopreserved human PBMCs from healthy donors were thawed and resuspended in RPMI-1640 media with L-glutamine (Corning) supplemented with 10% Fetal Bovine Serum (Hyclone) and 1× Penicillin-Streptomycin (Corning). After counting, the cell density was adjusted to 2 million cells/ml and incubated for 1 hour at 37° C., 5% CO2 for recovery. Following the recovery, the cells were plated by adding 50p per well (100,000 cells) to 384-well cell culture plates (Greiner) containing 250 nl of test antagonists in 100% DMSO per well, in a 10 points dose response in quadruplicates. PBMCs were incubated in the presence of antagonists for one hour at 37° C., 5% CO2 before being stimulated with TLR8 agonist. Compound A (Gilead Sciences, U.S. Pat. No. 10,285,990) was used as the TLR8 agonist at a final concentration of 800 nM. PBMCs were incubated in the presence of antagonist and the TLR8 agonist for an additional 6 hours at 37° C., 5% CO2. At the end of the incubation, the cell culture plates were centrifuged at 500 g for 5 min, and the cell culture supernatant was collected. The level of cytokines (TNFa and IL12p40) in the supernatant was measured by electrochemiluminescence immunoassays (Mesoscale Discovery) following manufacturer's recommended protocols. The level of cytokine measured was plotted against the antagonist concentration and fitted to a sigmoidal function to determine the EC50, which are shown below in Table 2.

[2] = target: cloned hERG potassium channel (Homo sapiens, UniProt Q12809); test: hERG FASTPatch assay (QPatch patch clamp); type: cell-based; details: hERG stably expressed in cells; 1, 3, 10 and 30 uM; room temperature; Table 3
Method: Human Ether-à-go-go-Related Gene (hERG) Assay
The FASTPatch® Assay (Charles River) was used to examine the in vitro effects of the compounds provided herein on the cloned hERG potassium channel encoded by the KCNHI2 gene and stably expressed in ITEK293T cells. Vehicle, test and control article formulations were prepared by diluting DMSO stock solutions in TIB-PS (HEPES-buffered physiological saline solution) and were delivered to cells via the QPatch robot pipetting system to a final concentration of 0.3% DMSO. Test compound final concentrations of 1, 3, 10 and 30 uM were applied to cells (n≥3, where n=the number of cells/concentration) in ascending order in at least three minute intervals separated by solution exchange. The positive control, 50 nM cisparide, was applied in the same manner. Cell membrane currents were recorded at room temperature with up to 48 parallel patch clamp amplifiers in the QPatch HT® or QPatch HTX® system, and only cells with validated whole-cell recordings (seal resistance ≥200 MQ and leak current ≤25% channel current) were used. Onset and block of hERG current was measured using a stimulus voltage pattern consisting of a 500 ms prepulse to −40 mV, a 2-second activating pulse to +40 mV, followed by a 2-second test pulse to −40 mV. The pulse pattern was repeated continuously at 10-second intervals from a holding potential of −80 mV. % Block={1−1/[1+([Test]/IC50)^N]}*100% Where [Test] is the concentration of test article, IC50 is the concentration of the test article producing half-maximal inhibition, N is the Hill coefficient and % Block is the percentage of current inhibited at each concentration of the test article. Nonlinear least squares fits will be solved with the Solver add-in for Excel 2000 or later (Microsoft, Redmon, WA). TurboSol analysis for test compound solubility was performed for each concentration tested using a Nephelostar reader measuring light scatter from a 635 nm laser source. Based on validation experiments, light scatter above four times the background level was considered an indication of the presence of particles in suspension.
The hERG IC50 values are provided below in Table 3.

cloned hERG potassium channel, sequence (Q12809 whole entry): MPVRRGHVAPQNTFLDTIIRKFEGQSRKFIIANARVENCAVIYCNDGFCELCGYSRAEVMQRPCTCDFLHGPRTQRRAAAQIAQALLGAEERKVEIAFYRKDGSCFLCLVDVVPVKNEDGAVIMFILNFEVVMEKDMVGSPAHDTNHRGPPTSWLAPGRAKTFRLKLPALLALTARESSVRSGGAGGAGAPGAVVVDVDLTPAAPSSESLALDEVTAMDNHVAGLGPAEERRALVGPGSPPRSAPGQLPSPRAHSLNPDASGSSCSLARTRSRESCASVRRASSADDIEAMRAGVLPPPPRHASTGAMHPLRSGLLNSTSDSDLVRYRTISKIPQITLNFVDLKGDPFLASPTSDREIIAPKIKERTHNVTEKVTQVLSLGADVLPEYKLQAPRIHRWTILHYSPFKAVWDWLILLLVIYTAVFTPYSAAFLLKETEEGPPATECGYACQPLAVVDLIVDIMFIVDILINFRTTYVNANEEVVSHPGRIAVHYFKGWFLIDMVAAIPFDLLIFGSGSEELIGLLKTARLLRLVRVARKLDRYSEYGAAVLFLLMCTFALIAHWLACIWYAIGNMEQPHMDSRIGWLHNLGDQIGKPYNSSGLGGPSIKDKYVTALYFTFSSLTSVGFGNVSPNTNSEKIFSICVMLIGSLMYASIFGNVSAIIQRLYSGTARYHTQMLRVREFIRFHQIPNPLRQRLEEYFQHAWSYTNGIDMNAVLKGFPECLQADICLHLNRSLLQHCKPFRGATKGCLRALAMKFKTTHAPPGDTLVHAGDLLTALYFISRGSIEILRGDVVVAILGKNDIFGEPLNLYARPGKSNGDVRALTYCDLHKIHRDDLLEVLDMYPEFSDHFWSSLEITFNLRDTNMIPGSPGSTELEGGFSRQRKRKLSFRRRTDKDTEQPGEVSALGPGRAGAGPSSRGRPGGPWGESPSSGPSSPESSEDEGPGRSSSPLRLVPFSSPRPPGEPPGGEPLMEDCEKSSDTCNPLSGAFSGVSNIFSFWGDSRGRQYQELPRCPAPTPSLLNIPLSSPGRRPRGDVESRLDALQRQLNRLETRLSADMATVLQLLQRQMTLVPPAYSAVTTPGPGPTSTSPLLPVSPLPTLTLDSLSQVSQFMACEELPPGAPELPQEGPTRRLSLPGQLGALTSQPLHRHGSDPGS

Row | SMILES | EC50 [1] [nM] | IC50 [2] [nM]
1 | Cc1cc(-c2ccc3c(C)c(-c4cnc(N5CCNCC5)nc4)[nH]c3c2)cc(C)n1 [Example 1, 6-(2,6-dimethylpyridin-4-yl)-3-methyl-2-(2-(piperazin-1-yl)pyrimidin-5-yl)-1H-indole] | 318 | 
2 | Cc1cc(-c2ccc3c(C)c(-c4ccc(N5CCNCC5)nc4)[nH]c3c2)cc(C)n1 [Example 2, 6-(2,6-dimethylpyridin-4-yl)-3-methyl-2-(6-(piperazin-1-yl)pyridin-3-yl)-1H-indole] | 307 | 7000
3 | Cc1cc(-c2[nH]c3ccc(-c4ccc(N5CCNCC5)nc4)cc3c2C(C)C)cc(C)n1 [Example A, reference compound] |  | 4500
4 | Cc1cc(-c2[nH]c3ccc(-c4ccc(N5CCNCC5)nc4)cc3c2C(C)C)cn2ncnc12 [Example B, reference compound] |  | 5100

Second part, led by results:

Row | EC50 [1] [nM] | SMILES | IC50 [2] [nM]
5 | 18.2 | Cc1c(-c2ccc(N3CCNCC3)nc2)[nH]c2cc(-c3cc(C)c4ncnn4c3)ccc12 [Example 4] | 15500
6 | 21.5 | Cc1c(-c2ccc(N3CCNCC3)nc2)[nH]c2cc(-c3ccc(C#N)c4ncccc34)ccc12 [Example 7] | 
7 | 34.7 | CCc1c(-c2ccc(N3CCNCC3)nc2)[nH]c2cc(-c3cc(C)c4ncnn4c3)ccc12 [Example 23] | 
